Data set [1] relates to caterpillars of the diamond back moth (Plutella xylostella). The data set can be described thus: Plutella Test. Format: in vivo. To be noted: active compound concentration 0.000032%, after 7 days, dipped cabbage leaves. How it is done: (§1) Solvent: 7 parts by weight of dimethylformamide
(§2) Emulsifier: 1 part by weight of alkylaryl polyglycol ether
(§3) To produce a suitable preparation of active compound, 1 part by weight of active compound is mixed with the stated amount of solvent and the stated amount of emulsifier, and the concentrate is diluted with water to the desired concentration.
Cabbage leaves (Brassica oleracea) are treated by being dipped into the active compound preparation of the desired concentration and are infested with caterpillars of the diamond back moth (Plutella xylostella), while the leaves are still moist.
(§4) After the desired period of time, the activity in % is determined. 100% means that all caterpillars have been killed; 0% means that none of the caterpillars have been killed.

The subject of data set [2] is caterpillars of the owlet moth (Spodoptera frugiperda). The data set can be described thus: Spodoptera frugiperda Test. Format: in vivo. To be noted: active compound concentration 0.0001%, after 7 days, dipped cabbage leaves. How it is done:
Spodoptera frugiperda Test
as §1, §2, §3
Cabbage leaves (Brassica oleracea) are treated by being dipped into the active compound preparation of the desired concentration and populated with caterpillars of the owlet moth (Spodoptera frugiperda) while the leaves are still moist.
as §4

Data set [3] can be described thus: logP, n-octanol/water partition coefficient by reversed phase HPLC. As to conditions: reversed phase HPLC using H2O/CH3CN; for logP (A isomer): A isomer (possible geometric isomer); for logP (B isomer): B isomer (possible geometric isomer). It is filed as physicochemical.
Data set [4] has as its system larvae of the mustard beetle (Phaedon cochleariae). As to the kind of experiment: Phaedon Larvae Test. Format: in vivo. As to conditions: after 7 days, dipped cabbage leaves. How it is done:
as §1, §2, §3
After the desired period of time, the kill in % is determined. 100% means that all the beetle larvae have been killed; 0% means that none of the beetle larvae have been killed.

Data set [5] deals with caterpillars of the cotton bollworm (Heliothis armigera). As to the kind of experiment: Heliothis armigera Test. Format: in vivo. As to conditions: active compound concentration 0.00016%, after 6 days, dipped soy shoots. How it is done: as §1, §2, §3
Soy shoots (Glycine max) are treated by being dipped into the active compound preparation of the desired concentration and are populated with caterpillars of the cotton bollworm (Heliothis armigera), while the leaves are still moist.
After the desired period of time, the activity in % is determined. 100% means that all the caterpillars have been killed; 0% means that none of the caterpillars have been killed.

The subject of data set [6] is greenhouse red spider mite (Tetranychus urticae). As to the kind of experiment: Tetranychus Test (OP resistant/spray treatment). Format: in vivo. To be noted: active compound concentration 0.000032%, after 14 days, sprayed bean plants. How it is done: Tetranychus Test (OP resistant/spray treatment)
Solvent: 3 parts by weight of dimethylformamide
as §2, §3
Bean plants (Phaseolus vulgaris) which are heavily infested by all stages of the greenhouse red spider mite (Tetranychus urticae) are sprayed with an active compound preparation of the desired concentration.
After the desired period of time, the activity in % is determined. 100% means that all the spider mites have been killed; 0% means that none of the spider mites have been killed.

Data set [7] concerns caterpillars of the owlet moth (Spodoptera exigua). As to the kind of experiment: Spodoptera exigua Test. It is filed as in vivo. To be noted: active compound concentration 0.000032%, after 6 days, dipped cabbage leaves. How it is done: as §1, §2, §3
Cabbage leaves (Brassica oleracea) are treated by being dipped into the active compound preparation of the desired concentration and populated with caterpillars of the owlet moth (Spodoptera exigua), while the leaves are still moist.
as §4

A further data set deals with Lucilia cuprina larvae. The data set can be described thus: Blowfly Larvae Test/development-inhibitory Action. Format: in vivo. To be noted: active compound concentration 100 ppm. How it is done:
Blowfly Larvae Test/development-inhibitory Action
Test animals: Lucilia cuprina larvae
Solvent: Dimethyl sulphoxide
20 m of active compound are dissolved in 1 ml of dimethyl sulphoxide, and lower concentrations are prepared by dilution with distilled H2O .
About 20 Lucilia cuprina larvae are placed in a test tube containing about 1 cm^3 of horsemeat and 0.5 ml of the active compound preparation to be tested. The activity of the active compound preparation is determined after 24 hours and 48 hours. The test tubes are transferred into beakers whose bottom is covered with sand. After a further 2 days, the test tubes are removed and the pupae are counted.
The activity of the active compound preparation is judged by the number of flies which have hatched after 1.5 times the development period of an untreated control. 100% means that no flies have hatched; 0% means that all flies have hatched normally.

Where [8] appears, read: active compound concentration 0.01%.

Structures are written as SMILES. Marks after values point to notes of the source that are not given here.

With `CCC(C)ON=C(C)COc1ccc(-c2ccc(C3COC(c4c(F)cccc4Cl)=N3)cc2)cc1` (mixture of isomers) [Example 3], the kill in data set [1], in data set [2], in data set [4] (setting [8]) and in data set [5] was 100% each time. In addition, in data set [3], the “logP (A isomer)” value is reported as 5.90 (A isomer)*. For the same compound, the “logP (B isomer)” value in data set [3] is given as 5.81 (B isomer)*.

For the compound `CON=CCOc1ccc(-c2ccc(C3COC(c4c(F)cccc4F)=N3)cc2)cc1` (mixture of isomers) [Example 8], in data set [3], the “logP (A isomer)” value is reported as 3.97 (A isomer)* and the “logP (B isomer)” value was 4.14 (B isomer)*.

As to `CCON=CCOc1ccc(-c2ccc(C3COC(c4c(F)cccc4F)=N3)cc2)cc1` (mixture of isomers) [Example 16], in data set [3], the “logP (A isomer)” value is reported as 4.35 (A isomer)* and the “logP (B isomer)” value was 4.53 (B isomer)*.

Turning to `CCON=C(COc1ccc(-c2ccc(C3COC(c4c(F)cccc4F)=N3)cc2)cc1)C(C)(C)C=C(Cl)Cl` (mixture of isomers) [Example 42], in data set [3], the “logP (A isomer)” value stood at 6.48 and the “logP (B isomer)” value is 6.37.

For the compound `CCCCON=C(C)C(C)Oc1ccc(-c2ccc(C3COC(c4c(F)cccc4Cl)=N3)cc2)cc1` (mixture of isomers) [Example 49], in data set [3], the “logP (A isomer)” value was 6.23 and the “logP (B isomer)” value was found to be 6.09.

Consider `CC(=NOCC(C)C)C(C)Oc1ccc(-c2ccc(C3COC(c4c(F)cccc4F)=N3)cc2)cc1` (mixture of isomers) [Example 51], for which, in data set [3], the “logP (A isomer)” value stood at 5.93 and the “logP (B isomer)” value stood at 5.79.

On to `CCCCON=C(C)C(C)Oc1ccc(-c2ccc(C3COC(c4c(F)cccc4F)=N3)cc2)cc1` (mixture of isomers) [Example 52], for which, in data set [3], the “logP (A isomer)” value is 5.94 and the “logP (B isomer)” value was 5.80.

Turning to `CC(COc1ccc(-c2ccc(C3COC(c4c(F)cccc4Cl)=N3)cc2)cc1)=NOCC(C)C` (mixture of isomers) [Example 54], in data set [3], the “logP (A isomer)” value turned out to be 5.85 and the “logP (B isomer)” value came to 5.76.

Take `CCCCON=C(C)COc1ccc(-c2ccc(C3COC(c4c(F)cccc4F)=N3)cc2)cc1` (mixture of isomers) [Example 55]: in data set [3], the “logP (A isomer)” value came to 5.58 and the “logP (B isomer)” value was 5.51.

On to `CCC(C)ON=C(C)COc1ccc(-c2ccc(C3COC(c4c(F)cccc4F)=N3)cc2)cc1` (mixture of isomers) [Example 56], for which, in data set [3], the “logP (A isomer)” value turned out to be 5.61 and the “logP (B isomer)” value came to 5.54.

For `CCCCON=C(C)C(C)Oc1ccc(-c2ccc(C3COC(c4ccccc4Cl)=N3)cc2)cc1Cl` (mixture of isomers) [Example 61], in data set [3], the “logP (A isomer)” value is given as 6.84 and the “logP (B isomer)” value is 6.67.

Consider `CCCCON=C(C)C(C)Oc1ccc(-c2ccc(C3COC(c4c(F)cccc4F)=N3)cc2)cc1Cl` (mixture of isomers) [Example 63], for which, in data set [3], the “logP (A isomer)” value is reported as 6.37 and the “logP (B isomer)” value is on record as 6.22.

For `CON=C(C)C(C)Oc1ccc(-c2ccc(C3COC(c4ccccc4Br)=N3)cc2)cc1` (mixture of isomers) [Example 92], in data set [3], the “logP (A isomer)” value was 5.08 and the “logP (B isomer)” value is reported as 5.18.

Turning to `Fc1cccc(F)c1C1=NC(c2ccc(-c3ccc(OCc4ccc(C(F)(F)F)cc4)cc3)cc2)CO1` (centres unmarked) [Example 1, 2-(2,6-difluorophenyl)-4-[4′-(4″-trifluoromethylbenzyl-oxy)-biphenyl-4-yl]-1,3-oxazoline], the kill in data set [1] was found to be 85%; in data set [2], 100%; in data set [6] it was 98%; in data set [7], 80%; in data set [4] (setting [8]), 100%; in data set [5] it was 100%.

As to `CC(=NOC(C)C)C(C)(C)Oc1ccc(-c2ccc(C3COC(c4c(F)cccc4Cl)=N3)cc2)cc1` (centres unmarked) [Example 4], the kill in data set [2] and in data set [4] (active compound concentration 0.00001%) was 100% in each case. This compound yielded a logP in data set [3] of 6.30.

Take `CC(C)Oc1ccc(-c2ccc(C3COC(c4ccccc4Br)=N3)cc2)cc1` (centres unmarked) [Example 5]: in the data set with Lucilia cuprina larvae, the “activity (development-inhibitory action, flies not hatched)” value is reported as 100%.

As to `ClC1(Cl)CC1COc1ccc(-c2ccc(C3COC(c4ccccc4I)=N3)cc2)cc1` (centres unmarked) [Example 22], the lipophilicity (logP) in data set [3] is recorded as 5.43.

`C#CC(C)Oc1ccc(-c2ccc(C3COC(c4c(F)cccc4F)=N3)cc2)cc1` (centres unmarked) [Example 36]: the log partition coefficient (logP) in data set [3] was 4.15.

In data set [3], `C#CC(C)Oc1ccc(-c2ccc(C3COC(c4ccccc4Cl)=N3)cc2)cc1` (centres unmarked) [Example 37] showed a logP of 4.49.

For the compound `CCON=CC(C)(C)Oc1ccc(-c2ccc(C3COC(c4c(F)cccc4F)=N3)cc2)cc1` (centres unmarked) [Example 53], the logP in data set [3] came out at 5.00.

Regarding `CON=CC(C)(C)Oc1ccc(-c2ccc(C3COC(c4c(F)cccc4F)=N3)cc2)cc1` (centres unmarked) [Example 57], in data set [3], the logP is reported as 4.62.

With `CC(=O)C(C)Oc1ccc(-c2ccc(C3COC(c4ccccc4Br)=N3)cc2)cc1` (centres unmarked) [Example 68], the logP in data set [3] turned out to be 4.13.

For `CC(O)C(C)Oc1ccc(-c2ccc(C3COC(c4ccccc4Br)=N3)cc2)cc1` (centres unmarked) [Example 91], in data set [3], the logP was determined as 3.74.

For `CC(=O)C(C)Oc1ccc(-c2ccc(C3COC(c4ccccc4F)=N3)cc2)cc1` (centres unmarked) [Example 100], the logP in data set [3] is listed as 3.79.

With `CC(C)(C=O)Oc1ccc(-c2ccc(C3COC(c4c(F)cccc4F)=N3)cc2)cc1` (centres unmarked) [Example 102], in data set [3], the logP worked out at 4.08.

`CC(C)Oc1ccc(-c2ccc(C3COC(c4ccccc4F)=N3)cc2)cc1` (centres unmarked) [Example 107] gave a lipophilicity (logP) in data set [3] of 4.65.

In the case of `CC(C)COc1ccc(-c2ccc(C3COC(c4ccccc4F)=N3)cc2)cc1` (centres unmarked) [Example 108], in data set [3], the log partition coefficient (logP) was 5.34.

For `CON=CCOc1ccc(-c2ccc(C3COC(c4c(F)cccc4Cl)=N3)cc2)cc1` (centres unmarked) [Example 112], the lipophilicity (logP) in data set [3] was 4.27.

In turn, `CCON=CCOc1ccc(-c2ccc(C3COC(c4c(F)cccc4Cl)=N3)cc2)cc1` (centres unmarked) [Example 113] showed a logP in data set [3] of 4.65.

`CON=CCOc1ccc(-c2ccc(C3COC(c4c(F)cccc4F)=N3)cc2)cc1Cl` (centres unmarked) [Example 114] had a log partition coefficient (logP) in data set [3] of 4.33.

In data set [3], `CCON=CCOc1ccc(-c2ccc(C3COC(c4c(F)cccc4F)=N3)cc2)cc1Cl` (centres unmarked) [Example 115] returned a logP of 4.71.

Compound `CON=CCOc1ccc(-c2ccc(C3COC(c4ccccc4Cl)=N3)cc2)cc1Cl` (centres unmarked) [Example 116] displayed a log partition coefficient (logP) in data set [3] of 4.72.

In data set [3], `CCON=CCOc1ccc(-c2ccc(C3COC(c4ccccc4Cl)=N3)cc2)cc1Cl` (centres unmarked) [Example 117] came in with a log partition coefficient (logP) of 5.08.

In the case of `Cc1cc(-c2ccc(C3COC(c4c(F)cccc4F)=N3)cc2)ccc1OCC(F)(F)F` (centres unmarked) [Example 119], in data set [3], the log partition coefficient (logP) stood at 4.80.

Consider `Cc1cc(-c2ccc(C3COC(c4c(F)cccc4OCC(F)(F)F)=N3)cc2)ccc1OCC(F)(F)F` (centres unmarked) [Example 120], for which the log partition coefficient (logP) in data set [3] was found to be 4.91.
